From US20200190101A1, “Composition Containing Novel Glutamic Acid Derivative And Block Copolymer, And Use Thereof” (Nippon Kayaku Kabushiki Kaisha, priority 2015, published 2020)
Structures can show the parent of a compound that is named as a salt.

System: Human renal cell cancer OS-RC-2
Assay: Test on antitumor effect of Example 6, OS-RC-2
Format: in vivo, nude mice
Details: 20 mg/kg in terms of epirubicin, i.v. once
Description: Human renal cell cancer OS-RC-2 was transplanted into nude mice similarly to Test Example 15, and after tumor engraftment was confirmed, the composition of Example 6 according to the present invention was dissolved in 5% glucose. The solution was intravenously administered through the caudal vein once at a dose of 10 or 20 mg/kg in terms of epirubicin. Furthermore, as a control drug, epirubicin hydrochloride was dissolved in a physiological solution, and the solution was intravenously administered through the caudal vein once at a dose of 10 or 20 mg/kg in terms of epirubicin.
After the administration, the major axis (L) and the minor axis (W) of a tumor were measured using calipers at an interval of 2 to 3 days, the tumor volume was calculated by the formula: (L×W^2)/2, and the tumor volume change rate from the administration initiation day was determined.

Structure (SMILES): COc1cccc2c1C(=O)c1c(O)c3c(c(O)c1C2=O)C[C@@](O)(C(=O)CO)C[C@@H]3O[C@H]1C[C@H](N)[C@@H](O)[C@H](C)O1 [epirubicin hydrochloride]
- Toxicity (death of mice): the mice died 8 days after the administration due to toxicity
